Test results from patent publication US5084481A, “Method of treating inflammatory diseases with pharmaceutical composition containing dihydrolipoic acid as active substance” (Asta Pharma Aktiengesellschaft, priority 1989, dated 1992).
“Also recorded” adds a separate entry of the source.

Tests used:
[1] = Randall Selitto inflammation pain test in rat; assay type: in vivo; settings: for ED50: 0.5 h, pain threshold 30 minutes after substance, read-out: analgesically effective ED50, Randall Selitto test
Protocol: The following is a brief description of the pharmacological test methods specially mentioned herein: Randall Selitto Test (inflammatory pain in the rat):
On the basis of the method after RANDALL and SELITTO (L.O. Randall and J. Selitto, Arch. int. Pharmacodyn., Vol. 111, pages 409-418 (1957)) 0.1 ml of a 20% suspension of brewer's yeast (in demineralized water) is injected subplantar into the right rear paw of rats. After 21/2 hours the test substances are given and 30 minutes later the pain threshold is measured as a pressure (in grams) on the inflamed paw using an algesimeter (equipment by Ugo BASILE, Milan/Italy). The criterion is the defense reaction of the animals in pulling the paw away and/or escaping from the technician's grip. The effect of the substance is determined by the increase in the pain threshold compared to an untreated control group. The course of the experiment differs from the original method in that the substances are only administered 21/2 hours after appearance of the edema and not given simultaneously therewith. This is done in order to prevent the development of the edema being inhibited by any possible anti-inflammatory action and the analgesia being masked or feigned.
The ED50 is determined using the linear regression method. The ED50 is then the dose in mg/kg for which a 50% analgesic effect is calculated.

[2] = Further investigatory models (MgSO4 writhing, adjuvans arthritis, mouse ear edema, arthrosis, intestinal ulceration, colitis, ethanol ulcer, UV-B radiation in healthy subjects); assay type: in vivo, rat, chicken; settings: models listed, stated collectively
From the text: MgSO4 writhing test in the mouse after GYIRES et al. (Arch. int. pharmacodyn. therap. 267, 131-140, 1984)
Adjuvans arthritis in the rat after NEWBOULD (Brit. J. Pharmacol. 21, 127-136, 1963)
TPA or arachidonic acid-induced mouse ear edema after YOUNG et al. (J. Invest. Dermatol. 80, 48-52, 1983)
Na-mono-iodine acetate-induced arthrosis in rats or chickens after KALBHEN, in: Arthrosis deformans, Eular-Verlag, Basel/Switzerland, 1982
TPA-induced arthrosis in rats after WEISCHER (Agents and Actions 23, 1/2, 1988)
Intestinal ulceration in rats after DEL SOLDATO (Agents and Actions 16, 393-396, 1985)
Colitis model in the rat after WEISCHER (Agents and Actions, 1988)
Ethanol ulcer model in the rat (determination of, for example, a cytoprotective effect)
The effect of topical DL-dihydrolipoic acid in the complex of symptoms induced by UV-B radiation in healthy subjects

[3] = Cytoprotective effect in animal trials; settings: in vivo
[4] = Acute toxicity in the mouse (LD50, Litchfield and Wilcoxon); settings: in vivo, oral application
Protocol: The acute toxicity of the invention in the mouse (expressed as the LD50 mg/kg; method of LITCHFIELD and WILCOXON, J. Pharmacol. Exp. Ther. 95:99, (1949)) is for example above 200 mg/kg in the case of oral application.

[5] = Comparison of the effect with alpha-lipoic acid and S-adenosyl-L-methionine (animal experiments); assay type: in vivo
[6] = Acetic acid writhing pain test in mouse; assay type: in vivo; settings: for ED50: read-out: analgesically effective ED50, acetic acid writhing test
From the text: Acetic acid test (Writhing test) in the mouse
In the acetic acid test after KOSTER et al. (Fed. proc., Vol. 18, page 412 (1959)) the pain irritation is triggered by an intraperitoneal injection of 1% acetic acid. The pain reaction is expressed in the form of a characteristic stretching of the animals ("writhing syndrome") which continues at irregular intervals for some time after the acetic acid injection. The dose-related inhibition of the frequency of writhing movements as compared to an untreated control group is expressed as an analgesic effect in percent. Evaluation is effected by determining the ED50 (linear regression method). The ED50 is the dose in mg/kg which achieves a 50% inhibition in the writhing syndrome.
The characteristic feature of the acetic acid test is that it not only determines the effect of strong, centrally acting analgesics, but also that of predominantly peripherally acting analgesic, antipyretic and anti-inflammatory agents such as phenylbutazone, indomethacin, etc.

[7] = PAF-acether edema in the rat; assay type: in vivo; settings: for % effect, PAF-acether edema: rat, given 0.5 hours before triggering, edema measured 1 hour thereafter
Protocol: (Platelet Aggregating Factor)-acether-edema in the rat
The principle of this method is to provoke a locally limited edema or inflammation in the rat paw by means of the subplantar injection of 2 μg of PAF acether per animal. The investigations were carried out on the basis of the method of SWINGLE and REITER (Agents and actions, 18, 358-365, (1986)). The animals received the test substances 0.5 hours before triggering of the edema. The edema was measured 1 hour thereafter. The ED50 was calculated using the linear regression method.

[8] = rats and mice; solutions in water or physiological sodium chloride containing venom and substance; cited from earlier work
[9] = Carragheen-induced edema test in the rat (anti-inflammatory effect); assay type: in vivo; settings: for ED50: read-out: anti-inflammatorally effective ED50, carragheen edema
Protocol: Carragheen-edema test for anti-inflammatory effect
The examination is carried out in carragheen-induced edema of rat paw on the basis of the method of MoRSDORF and colleagues (Arch. int. Pharmacodyn. 192, 111-127 (1971)). The anti-inflammatory effect is for example quoted as edema inhibition in percent as compared to the untreated control group. […]. The substance is given orally or intraperitoneally […]. The ED50 is the dose in mg/kg at which there is a 50% inhibition of the paw edema.

O=C(O)CCCCC(S)CCS (racemic) [dihydrolipoic acid, 6,8-dimercapto-octanoic acid]
analgesic effect (in words) ([1]; Randall Selitto inflammation pain test in rat): good analgesic effect
ED50 ([1]; ip, intraperitoneally, rat): 0.14 mg/kg
analgesic effect superior to that of alpha-lipoic acid by a factor ([1]; peroral application, Randall Selitto, rat): ≥ 2.8
ED50 ([1]; po, per os, rat): 16.2 mg/kg
minimal effective dose ([1]; po, per os, rat, read-out: minimum dose to produce an analgesic effect in the Randall Selitto pain test): 5 mg/kg
analgesic, anti-inflammatory, anti-arthrotic and cytoprotective effect in further models (in words) [2]: good analgesic, anti-inflammatory, anti-arthrotic and cytoprotective effect
cytoprotective effect (in words) [3]: good cytoprotective effect; also recorded: specific cytoprotective effect
LD50 [4]: > 200 mg/kg
time after application at which the full effect appears ([5]; animal experiments): 0.5 h
effect stronger than that of alpha-lipoic acid by a factor ([5]; in vivo): 2-3
analgesic effect (in words) ([6]; acetic acid writhing pain test in mouse): good analgesic effect
ED50 ([6]; ip, intraperitoneally, mouse): 4.6 mg/kg
analgesic effect superior to that of alpha-lipoic acid by a factor ([6]; peroral application, acetic acid writhing, mouse): at least 1.9
ED50 ([6]; po, per os, mouse): 26.8 mg/kg
% effect, PAF-acether edema ([7]; 25 mg/kg intraperitoneally): 14%
% effect, PAF-acether edema ([7]; 50 mg/kg intraperitoneally): 63%
% effect, PAF-acether edema ([7]; 200 mg/kg intraperitoneally): 73%
inhibition of vasopermeability (in words) ([7]; PAF edema in the rat): good inhibition of vasopermeability
inactivation of snake venom (in words) [8]: inactivates snake venom
anti-inflammatory activity (in words) ([9]; carragheen-induced edema in the rat): good anti-inflammatory activity
ED50 ([9]; ip, intraperitoneally, rat): 7.7 mg/kg
anti-inflammatory activity superior to that of alpha-lipoic acid by a factor ([9]; peroral application, carragheen edema, rat): at least 1.9
ED50 ([9]; po, per os, rat): 26 mg/kg
minimal effective dose ([9]; po, per os, rat, read-out: minimum dose to produce an anti-inflammatory effect in the carragheen-induced edema test): 5 mg/kg
